Each block holds one molecule with its values, some of them ahead of it.
What was measured:
[1] = tested on: mice; experiment: Maximal Electroshock Seizure (MES) test, mice i.p.; type: in vivo; settings: for activity in the MES test: mice
[2] = tested on: mice; experiment: Subcutaneous Metrazol Seizure threshold (s.c. MET) test, mice i.p.; type: in vivo; settings: for activity in the s.c. MET test: mice
[3] = tested on: rats; experiment: MES test, rats p.o.; type: in vivo; settings: at 30 mg/kg
[4] = tested on: SMN2 promoter; experiment: SMN2 promoter β-lactamase reporter assay in NSC34 motor neuron-like cells; type: cell-based; settings: for Promoter (SMN2 promoter test, summary YES/NO): Table 13 summary; for SMN2 promoter activity: treatment for 19 hours at a concentration of 1 μM
Procedure: FIG. 30 illustrates a screen for SMN2 expression of a number of compounds described herein.
SMN2 promoter activity was measured using NSC34 motor neuron-like cells stably transfected with a β-lactamase (BLA) reporter gene under the control of a 3.4-kilobase fragment of the SMN2 promoter. D156844 was used as a positive control for this assay.

[5] = tested on: rats; experiment: Pilocarpine-induced Status Epilepticus in Rats (prevention; intervention @ 30 min); settings: Rattus norvegicus
[6] = tested on: rat dopaminergic N27 cells; experiment: N27 protection assay against oxidative stress (H2O2 or MPP+; MTT and LDH); type: cell-based; settings: drug 24 hours before 200 μM H2O2 or 640 μM MPP+
From the text: FIGS. 20A-25D data are shown illustrating neuroprotective and neuroregenerative effects observed in rat dopaminergic N27 cells. Rat dopaminergic N27 cells are commonly used in in vitro and in vivo model systems for studying Parkinson's disease. Parkinson's disease is a neurodegenerative disorder of the central nervous system that affects more than 6 million people worldwide. The motor symptoms of Parkinson's disease result from the death of dopamine generating cells in the substantia nigra, a region of the midbrain.
The N27 rat dopaminergic neuron cell line was harvested from E12 rat mesencephalic tissue and was transfected with SV40 to immortalize the cell line. The N27 cell line, when injected into the striata of 6-hydroxydopamine-lesioned rats (an animal model of PD) caused a time-dependent improvement in neurological deficits. This immortalized cell line has been carefully characterized in studies of dopamine biosynthesis, neurotoxicity and used as a dopaminergic neuron model studies.
The N27 in vitro Parkinson's disease model included a test of cell viability and cell toxicity in response to exposure to oxidative stress (e.g., either 200 μM H2O2 or 640 μM MPP+).
Cell viability was tested using the MTT assay. The MTT assay is a colorimetric analysis based on the activities of mitochondrial NAD(P)H-dependent cellular oxidoreductase enzymes. These enzymes are capable of reducing the tetrazolium dye, MTT [3-(4,5-dimethylthiazol-2-yl)-2,5-diphenyltetrazolium] bromide, to an insoluble formazan (purple). […] More viable cells equal more accumulation of the insoluble formazan dye.
Cell toxicity was tested using the […] (LDH) assay. Cells that are stressed secrete LDH. In general, the more cells are stressed, the LDH they secrete into their media. The LDH assay is a reliable colorimetric assay to measure quantitatively the […] (LDH) that is released into the cell culture media from damaged cells as a biomarker for cytotoxicity and cytolysis.
FIGS. 20A-25D present data from two types of assays: protection and recovery assays. In the protection assays, the drug candidate was applied to the cells at various concentrations for 24 hours, followed by the exposure to oxidative stress (either 200 μM H2O2 or 640 μM MPP+) for measuring neuroprotective effect. H2O2 provides a broad measure of oxidative stress, while MPP+ gives a more specific oxidative stress to dopaminergic neurons.
The protection assay results are shown in panels A-C of FIGS. 20-25 In the recovery assays, the cells were first damaged by exposure to H2O2 and then various concentrations of the drug were applied to the cells. The results for the recovery assays are shown the D panels of FIGS. 20-25.

[7] = tested on: mice; experiment: Minimal motor impairment (MID50), mice i.p.; settings: mice i.p.
[8] = in vivo; settings: mouse, ip
[9] = tested on: mice; experiment: 6 Hz (minimal clonic seizure) model, mice i.p.; type: in vivo; settings: for activity in the 6 Hz (minimal clonic seizure) model: mice, at 100 mg/kg; for 6 Hz (32 mA), fraction of animals: mice i.p.
[10] = tested on: type II SMA fibroblasts (GM03813); experiment: SMN protein localization, gem counting in type II SMA fibroblasts; type: cell-based; settings: 100 nM-10 μM, 5 days
Procedure: To validate the SMN2 promoter and exon 7 screens, the effects of compounds H, H (acid form), AY, F, BX, and BY were evaluated on the basis of expression and localization of SMN protein in type II SMA fibroblasts (GM03813). In a normal cell, SMN protein localized within the nucleus to discreet foci known as gems. In SMN-deficient SMA cells, the number of gems is greatly diminished. Although the function of gems is unknown, it is believed that they are somehow involved in the snRNP assembly function of SMN. Gem counting can, therefore, be considered an assay for SMN function.
GM03813 fibroblasts were treated with different doses (100 nM-10 μM) of compounds H, H (acid form), AY, F, BX, and BY for 5 days. SMN immunostaining was then completed on these cells and the number of gems was counted in 100 randomly-selected nuclei. […] In fact, the gem counts at the highest dose of compound H approach those observed for carrier fibroblasts (GM03814). When compared against treatment with 1 μM D157495—a D156844 derivative, all of the compounds tested performed as well as or, even better than D157495.

[11] = tested on: mice; experiment: Corneal kindled mouse model; type: in vivo; settings: mice i.p.; 100 mg/kg @ 0.25 hr
[12] = tested on: inclusion of exon 7 in SMN2 mRNAs; experiment: Exon 7 inclusion BLA reporter assay in NSC34 cell line; type: cell-based; settings: for effect on the inclusion of exon 7 in SMN2 transcripts / exon 7 test, particularly strong hits: NSC34 exon 7 BLA reporter cells; for Exon 7 inclusion (summary YES/NO): Table 13 summary
From the text: To measure changes in the inclusion of exon 7 in SMN2 mRNAs, another NSC34 cell line was used that stably transfected with a reporter construct which expresses BLA when exon 7 is included in the SMN2 minigene mRNAs. 5-(N-ethyl-N-isopropyl)-amiloride (EIPA) was used as a positive control for this assay. Data for tis assay is illustrated in FIG. 30.

[13] = read-out: Prevention, Protection
[14] = 0.5 h, read-out: Intervention @ 30 min, Protection

Compound: CC(C)C(CC(N)=O)c1ccc(F)cc1 (stereo not drawn) [AQ, 3-(4-Fluoro-phenyl)-4-methyl-pentanoic acid-amide]
activity in the MES test ([1]; at 100 mg/kg): activity | activity in the s.c. MET test ([2]; at 300 mg/kg): activity | activity in the MES test [3]: activity | SMN2 promoter assay, evidence of activity (may warrant further study) ([4]; NSC34 BLA reporter cells): show evidence of activity | responders at 65 mg/kg [5, 13]: 86%

Compound: NC(=O)CC1(c2ccc(Cl)cc2)CC1 [AH]
MES ED50 ([1]; mice i.p., @ 0.25 hr): 69.6 mg/kg | s.c. MET ED50 ([2]; mice i.p., @ 0.25 hr, in mg/kg): 77.98 | neuroprotective effect against H2O2 and MPP+ oxidative stresses (MTT and LDH assays) [6]: statistically significant, dose-dependent neuroprotection | MID50 (TD50) ([7]; @ 0.25 hr): 185.73

Compound: NC(=O)[C@@H]1C[C@H]1c1ccccc1 (relative stereo) [Compound P, trans-2-phenylcyclopropane-1-carboxamide]
activity in the MES test ([1]; at 300 mg/kg): activity | activity in the MES test [3]: activity | responders at 450 mg/kg [5, 13]: 100%

Compound: CCC(CC(N)=O)c1ccc(C(F)(F)F)cc1 (stereo not drawn) [Compound AA, 3-(4-Trifluoromethylphenyl)-pentanamide]
ED50 ([1]; Mus musculus, ip, mice i.p., @ 0.5 hrs): 86.6 mg/kg | activity in the MES test ([1]; at 100 mg/kg): activity | ED50 ([2]; Mus musculus, mice i.p., @ 0.5 hrs): 149 mg/kg | activity in the s.c. MET test ([2]; at 300 mg/kg): activity | TD50 at 0.25 hr [8]: 142 mg/kg | activity in the 6 Hz (minimal clonic seizure) model [9]: activity | neuroprotective effect against H2O2 and MPP+ oxidative stresses (MTT and LDH assays) [6]: statistically significant, dose-dependent neuroprotection | activity in the MES test [3]: activity | SMN2 promoter assay, particularly strong hits ([4]; NSC34 BLA reporter cells): particularly strong hits | Promoter (SMN2 promoter test, summary YES/NO) [4]: YES | SMN2 promoter activity [4]: increased SMN2 promoter activity

Compound: CC(CC(N)=O)c1ccc(Cl)cc1 (stereo not drawn) [BV, 3-[4-chloro-phenyl]butyramide]
MES, fraction of animals ([1]; mice i.p., 100 mg/kg @ 0.5 hr): 2/3 @ | activity in the MES test ([1]; at 100 mg/kg): activity | activity in the MES test [3]: activity

Compound: CC(CC(N)=O)c1ccc(N2CCOCC2)cc1 (stereo not drawn) [Compound AY, 3-(4-Morpholin-4-yl-phenyl)-butyramide]
6 Hz (32 mA), fraction of animals ([9]; 100 mg/kg @ 1.0 hr): 1/4 | activity in the 6 Hz (minimal clonic seizure) model [9]: activity | SMN2 promoter activity [4]: increased SMN2 promoter activity | responders at 600 mg/kg [5, 13]: 38% | gem counts (SMN immunostaining, 100 nuclei) [10]: increase gem counts in a dose-dependent manner

Compound: NC(=O)CC(c1ccc(Cl)cc1)C1CC1 (stereo not drawn) [X, 3-(4-Chloro-phenyl)-3-cyclopropyl-propionamide]
activity in the MES test ([1]; at 100 mg/kg): activity | activity in the s.c. MET test ([2]; at 300 mg/kg): activity | 6 Hz (32 mA), fraction of animals ([9]; 75 mg/kg @ 1.0 hr): 4/4 | 6 Hz (32 mA), fraction of animals ([9]; 75 mg/kg @ 2.0 hr): 2/4 | 6 Hz (32 mA), fraction of animals ([9]; 75 mg/kg @ 4.0 hr): 1/4 @ | neuroprotective effect against H2O2 and MPP+ oxidative stresses (MTT and LDH assays) [6]: statistically significant, dose-dependent neuroprotection | activity in the MES test [3]: activity | Promoter (SMN2 promoter test, summary YES/NO) [4]: YES | SMN2 promoter activity [4]: increased SMN2 promoter activity | Corneal Kindled, Average seizure score [11]: score is 3: | Corneal Kindled, fraction of animals [11]: 2/4 @

Compound: COc1ccc(C(CC(N)=O)C2CC2)cc1 (stereo not drawn) [AM, 3-Cyclopropyl-3-(4-methoxy-phenyl)-propionamide]
MES, fraction of animals ([1]; mice i.p., 100 mg/kg @ 0.25 hr): 1/3 @ | activity in the MES test ([1]; at 100 mg/kg): activity | effect on the inclusion of exon 7 in SMN2 transcripts [12]: positive effect on the inclusion of exon 7 | exon 7 test, particularly strong hits [12]: Particularly strong hits | Exon 7 inclusion (summary YES/NO) [12]: YES | 6 Hz (32 mA), fraction of animals ([9]; 100 mg/kg @ 0.25 hr): 1/4 | 6 Hz (32 mA), fraction of animals ([9]; 100 mg/kg @ 0.5 hr): 2/4 | 6 Hz (32 mA), fraction of animals ([9]; 100 mg/kg @ 1.0 hr): 1/4 @ | activity in the MES test [3]: activity | SMN2 promoter assay, particularly strong hits ([4]; NSC34 BLA reporter cells): Particularly strong hits | Promoter (SMN2 promoter test, summary YES/NO) [4]: YES | SMN2 promoter activity [4]: increased SMN2 promoter activity | responders at 400 mg/kg [5, 14]: 38% | responders at 200 mg/kg [5, 13]: 100%

Compound: NC(=O)CC(c1ccc(F)cc1)C1CC1 (stereo not drawn) [Y, 3-Cyclopropyl-3-(4-fluoro-phenyl)propionamide]
activity in the MES test ([1]; at 100 mg/kg): activity | s.c. MET, fraction of animals ([2]; mice i.p., 100 mg/kg @ 0.5 hr): 2/5 @0.5 hrs, | activity in the s.c. MET test ([2]; at 100 mg/kg): activity | activity in the 6 Hz (minimal clonic seizure) model [9]: activity | SMN2 promoter activity [4]: increased SMN2 promoter activity | responders at 65 mg/kg [5, 13]: 88% | Corneal Kindled, Average seizure score [11]: 0: (0, 0, | Corneal Kindled, fraction of animals [11]: 4/4 @

Compound: COc1ccc(C(CC(N)=O)C(C)C)cc1C (stereo not drawn) [AS, 3-(4-Methoxy-3-methyl-phenyl)-4-methylpentanoic acid amide]
activity in the MES test ([1]; at 100 mg/kg): activity | neuroprotective effect against H2O2 and MPP+ oxidative stresses (MTT and LDH assays) [6]: potent dose-dependent neuroprotective effects | activity in the MES test [3]: activity | Promoter (SMN2 promoter test, summary YES/NO) [4]: YES | SMN2 promoter activity [4]: increased SMN2 promoter activity | responders at 200 mg/kg [5, 13]: 100%

MID50, fraction of animals ([7]; 100 mg/kg @ 0.5 hr): 5/8 @
Compound: CC(CC(N)=O)c1ccccc1OC(F)(F)F (stereo not drawn) [BU, 3-[2-(trifluoromethoxy)-phenyl]butyramide]
MES, fraction of animals ([1]; mice i.p., 100 mg/kg @ 0.5 hr): 3/3 | MES, fraction of animals ([1]; mice i.p., 100 mg/kg @ 4.0 hr): 2/3 | activity in the MES test ([1]; at 100 mg/kg): activity | effect on the inclusion of exon 7 in SMN2 transcripts [12]: positive effect on the inclusion of exon 7 | exon 7 test, particularly strong hits [12]: Particularly strong hits | Exon 7 inclusion (summary YES/NO) [12]: YES | SMN2 promoter assay, particularly strong hits ([4]; NSC34 BLA reporter cells): Particularly strong hits | Promoter (SMN2 promoter test, summary YES/NO) [4]: YES | SMN2 promoter activity [4]: increased SMN2 promoter activity | responders at 127 mg/kg [5, 14]: 50% | responders at 65 mg/kg [5, 13]: 100%

Compound: CC(CC(=O)N1CCCC1)c1ccc(OC(F)(F)F)cc1 (stereo not drawn) [BG, 1-Pyrrolidin-1-yl-3-(4-trifluoromethoxy-phenyl)-butan-1-one]
MES, fraction of animals ([1]; mice i.p., 100 mg/kg @ 0.5 hr): 1/3 @ | activity in the MES test ([1]; at 100 mg/kg): activity | activity in the MES test [3]: activity

Compound: CC(CC(=O)O)c1ccc(OC(F)(F)F)cc1 (racemic) [H (acid form)]
gem counts (SMN immunostaining, 100 nuclei) [10]: increase gem counts in a dose-dependent manner | relative potency in increasing gem counts [10]: most potent

Reference: patent US12486218B2, “Compounds advantageous in the treatment of central nervous system diseases and disorders” (AurimMed Pharma, Inc., priority 2008, dated 2025)
